Assay results as given in patent US11866695B2, “Methods and systems and related compositions for mixtures separation with a solid matrix” (CALIFORNIA INSTITUTE OF TECHNOLOGY, priority 2019, dated 2024).
“Also recorded” adds a separate entry of the source.

Experiments:
[1] = tested on: λ phage DNA; test: Zymo Quick-Viral DNA/RNA kit extraction with additional TPW, qPCR with 2.2× diluted eluent; format: biochemical
Protocol: qPCR reactions contained 1× Bio-Rad SsoFast Supermix (1725201, Bio-Rad), PCR primers (IDT) at […] each, and were supplemented with nuclease-free water up to 10 μL. Each 96-well plate (thin-wall clear well, HSP9641, Bio-Rad) was sealed (Microseal B, MSB1001, Bio-Rad) and briefly spun in a Mini Plate Spinner Centrifuge (14-100-141, Fisher Scientific). Heating and real-time imaging were performed on the Bio-Rad CFX-96 Touch Real-Time PCR Detection System by heating to 95° C. for 5 min, cycling 40 times between 95° C. for 15 s, 60° C. for 15 s, and 72° C. for 20 s, and taking a melt-curve analysis. For the E. coli DNA dilution experiment, qPCR was run for 60 cycles. Fluorescence readings were taken at the end of each extension step. Quantification cycle (Cq) was determined when the software's automated baseline corrected fluorescence reached 200 RFU.
(§1) Three different silica-column kits were tested, including: Zymo ZR Viral DNA/RNA Kit (outdated protocol, D7021), Zymo Quick-DNA/RNA Kit (updated protocol, D7021), and the QIAquick PCR Purification Kit (28104, Qiagen). For all silica-column kits, fresh collection tubes were used after each spin and centrifugation speeds were set to 16,000×g. Centrifugation was performed on either an Eppendorf 5415D centrifuge (Eppendorf, Hauppauge, N.Y., USA) or a Thermo Fisher Scientific AccuSpin Micro 17R centrifuge (13-100-676). It was noted that the QIAquick protocol calls for 17,900×g, but instead was run at 16,000×g which was the max speed for the Eppendorf 5415D. For both Zymo kits, 750 μL lysed sample was prepared by mixing 125 μL sample with 125 μL Zymo 2×DNA/RNA Shield and 500 μL Viral DNA/RNA Buffer. For the Zymo ZR Viral DNA/RNA kit, 750 μL lysed sample was centrifuge for 1 min, 500 μL Zymo Viral Wash Buffer was centrifuged for 2 min, and 50 μL nuclease-free water was centrifuged for 30 s into a clean 1.5 mL tube. Optionally, either a dry spin or 300 μL TPW was centrifuged for 2 min in between the Viral Wash Buffer and elution steps. […] For the QIAquick PCR Purification Kit, 125 μL sample was mixed with 625 μL Buffer PB without indicator. 750 μL lysed sample was centrifuged for 30 s, followed by 750 μL Buffer PE for 30 s, a dry spin for 1 min, and 50 μL nuclease-free water for 1 min. Optionally, the dry spin was skipped or the dry spin was replaced with a 300 μL TPW and centrifuged for 1 min.
Of our TPW candidates, 1-undecanol was selected for further evaluation because (i) it was non-inhibitory for qPCR and LAMP reactions and (ii) as an alcohol, 1-undecanol may function similarly to ethanol- or isopropanol-based washes. In these experiments (testing criteria 1b and 2), a commercially purified λ phage DNA sample was first diluted to 2.5×10^6 copies and ran an NA extraction using the Zymo Quick-DNA/RNA Viral Kit. The experimental procedure either followed the manufacturer protocol or added an additional 300 μL 1-undecanol wash in between the Viral Wash Buffer and elution step. Using the manufacturer's protocol, the resulting eluent is approximately 49 μL, but with the added TPW the resulting eluent is approximately 48 μL aqueous phase and ˜1-2 μL 1-undecanol phase. To emphasize any potential inhibitory effects, a low dilution of eluent was used. For qPCR, a 2.2×dilution was achieved by adding 4.5 μL of eluent, 0.5 μL primers, and 5 μL qPCR reaction mix. For LAMP, a 2×dilution was achieved by adding 5 μL eluent, 0.5 μL primers, and 4.5 μL reaction mix. […] The ˜1-2 μL TPW separates from the aqueous phase and adheres to the walls of the tube, making it is easy to use a pipette to capture just the eluent.

[2] = tested on: LAMP reaction mix; test: 3-step Zymo ZR extraction with viral wash buffer replaced, LAMP with 2× dilution of eluent; format: biochemical; conditions: wash replaces viral wash buffer; 5 μL eluent in 10 μL
Protocol: as §1
Exchanging the ethanol wash for a TPW could be useful for applications in which the starting sample is already relatively pure. For this experiment, Zymo ZR kit was used, which has three centrifugation steps: lysis (sample, shield, lysis buffer), wash (ethanol-based viral wash buffer), and elution (water). […] An aliquot of 5 μL of the resulting eluent was added to 5 μL of LAMP reaction mix and amplified at 68° C. Eluent from the manufacturer protocol amplified in 5.7 min. […]

| Structure (SMILES) | Cq ([1]; 2.2× eluent dilution, 3 columns, 9 samples) [cycles] | qPCR reactions amplified ([1]; 2.2× eluent dilution, amplified/total) | average Cq ([1]; 27 reactions (9 columns)) [cycles] | wells with Cq between 18-22 cycles ([1]; 27 reactions (9 columns)) | wells with a delayed Cq ([1]; 27 reactions (9 columns)) | LAMP performance of eluent [2] |
| --- | --- | --- | --- | --- | --- | --- |
| CCCCCCCCCCCO [1-undecanol] | 18.46±0.22 | all reactions amplified | 19.7±2.5 | 25/27 | 2/27 | – |
| CCO [Ethanol, ethanol] | – | – | – | – | – | slightly outperforms the viral wash buffer; also recorded: performed slightly better (earlier TTP) than the viral wash buffer |
